Data on nine molecules can be found in patent US6872749B2, “Method for supplying bioavailable methionine to a cow” (Adisseo Ireland Limited, priority 1998, dated 2005).

Where two headings read alike, the source gives them in different places.

In one data set the test system is cows. The data set is described as follows: Milk production of dairy cows given ester supplement (Examples 4 and 6). The note with it: for Butter Content of Milk / Daily amount of milk / Protein content of Milk: supplement providing 12.5 g of bioavailable methionine per animal per day, 16 cows; for Effect of addition to the diet on milk composition: versus control, Table 5. It counts as in vivo, cow. An excerpt: The isopropyl ester of the hydroxy analogue of methionine was given to 16 cows over a period of 8 weeks. Each cow was given daily corn silage and a supplement to cover 100% of requirement and a 115% PDIE (protein digestible in the intestine) requirement.
The supplements were given to the cows according to the following schedule: […]

Another data set is described as follows: in vivo. Particulars: bovine. As for the experimental part: The kinetics of availability of methionine and HMB in the bloodstream were determined for the isopropyl ester of the hydroxy analogue of methionine and compared with the hydroxy analogue of methionine (a compound not according to the present invention).
The procedure of Example 2 was repeated wherein samples of the isopropyl ester of the hydroxy analogue (69 g) and the hydroxy analogue (Alimet™-57 g) were given to four cows.

The conditions of data set [1]: bovine, in vivo. As for the experimental part: Spot doses of the following amounts of the esters prepared as detailed above, equating to 50 g of methionine equivalent, were given to 2 cows in the manner described in Example 2(b1) above. • methyl ester of HMB: 64.8 g • ethyl ester of HMB: 74.8 g • isopropyl ester of HMB: 80.5 g • n-butyl ester of HMB: 96 g • cyclohexyl ester of HMB: 97.5 g • see butyl ester of HMB: 79 g The concentration of methionine and HMB was measured over a period of 27 hours.
56 g of methyl methioninate and 72 g of n-propyl methioninate (providing an equivalent 50 g of DL-methionine), prepared as detailed above, were supplied to two cows as a spot dose at 7.45 am just before the morning feed.
The ration given to the cows was distributed as two equal meals at 08.00 hours and 16.00 hours comprised 7 kg of hay and 2 kg concentrate.
Samples of blood were taken by jugular vein puncture 09.00, 10.00, 11.00, 13.00 and 15.00 hours on the day where the ester was given to the animal and at 09.00, 12.00 and 15.00 hours on the day before and two days after supply.
The plasma from each sample was isolated from the blood samples by centrifuging the blood at 3000 revs per minute for 10 minutes. The samples were stored in a freezer. The assay for methionine was carried out according to the standard procedure of Moore and Stein.
The results were plotted using the conventional AUC method wherein the areas under the curves are calculated to obtain the bioavailability values for each ester.

Data set [2] can be described thus: Bioavailability of esters of methionine after spot dose to cows (Example 2). It counts as in vivo, cow. The note with it: bovine, in vivo. As for the experimental part: The bioavailability of the esters was evaluated.
The samples were stored in a freezer.
The procedure of (b1) was repeated using 72 g of methionine ethyl ester hydrochloride, prepared as detailed above
• cyclohexyl methioninate: 122 g • methionine methyl ester hydrochloride: 73 g • sec butyl methioninate: 72 g

The conditions of data set [3]: incubation for six hours in rumen juices; cited from earlier work.
The conditions of data set [4]: dose of methionine equivalent to 50 g per day per cow; cited from earlier work.

As for `CSCCC(O)C(=O)OC(C)C` (centres unmarked) [Isopropyl ester of HMB, isopropyl ester of the hydroxy analogue of methionine], in the data set on cows, the “Butter Content of Milk” value is 44.3 g/kg; the “Daily amount of milk” value is 32.3 kg/cow; the “Protein content of Milk” value was 30.8 g/kg; the “Effect of addition to the diet on milk composition” value was “higher fat content and higher protein content”. In “in vivo”, the “Blood plasma HMB concentration” value is given as 0.00 mg/100 g of plasma; the “Speed of providing methionine and HMB to the bloodstream” value is listed as “much quicker than HMB itself”. Moreover, in data set [1], the Bioavailability came out at 59%, the “appearance of the bioavailability peak in the blood following administration” value was “relatively quickly”, the bioavailability of methionine result is “more than 50%” and the “methionine equivalent provided to the bloodstream by absorption across the rumen wall” value is “at least 50%”.
On to `CSCC[C@H](N)C(=O)OC(C)C` [Isopropyl methioninate, isopropyl methioninate], for which the “Butter Content of Milk” value in the data set with cows was 43.3 g/kg. Further, the “Daily amount of milk” value in the data set with cows stood at 32.7 kg/cow. Moreover, the “Protein content of Milk” value in the data set with cows was determined as 30.6 g/kg. The “Effect of addition to the diet on milk composition” value with cows is “higher fat content and higher protein content”. Moreover, the “[met] methionine concentration in blood plasma” value in data set [2] (0 h) was 0.33 mg/100 g of blood plasma; in data set [2] (1 h) it was 3.62 mg/100 g of blood plasma; in data set [2] (2 h), 3.21 mg/100 g of blood plasma; in data set [2] (3 h), 2.86 mg/100 g of blood plasma; in data set [2] (5 h), 2.22 mg/100 g of blood plasma; in data set [2] (7 h) it was 1.93 mg/100 g of blood plasma. Further, the “[met] methionine concentration in blood plasma” value in data set [2] (28 h) is given as 0.35 mg/100 g of blood plasma. Further, in data set [2] (po), the Bioavailability % is 44%.
`COC(=O)C(O)CCSC` (centres unmarked) [Methyl ester of HMB, methyl ester of HMB]: the “amount remaining after incubation in rumen juices” value (from here on “amount remaining after incubation”) in data set [3] is listed as 1.8%. The molecule also yielded a Bioavailability in data set [1] of 39%.
In the case of `CCOC(=O)C(O)CCSC` (centres unmarked) [ethyl ester of HMB], in data set [3], the “amount remaining after incubation” value was 3%. In addition, the Bioavailability in data set [1] was found to be 35%.
For `CSCCC(O)C(=O)O` (centres unmarked) [HMB, 2-hydroxy-4-(methylthio) butanoic acid], the “amount remaining after incubation” value in data set [3] was 85%. In addition, the “Blood plasma HMB concentration” value in “in vivo” (0 min), in the data set “in vivo” (10 min), in “in vivo” (20 min), in “in vivo” (30 min), in the data set “in vivo” (40 min) and in “in vivo” (50 min) was 0.00 mg/100 g of plasma in each case. Besides, the “Blood plasma HMB concentration” value in “in vivo” (60 min), in the data set “in vivo” (75 min) and in “in vivo” (90 min) was 0.00 mg/100 g of plasma each time. The concentration at 0 min in “in vivo” (Blood plasma HMB concentration) was determined as 0 ng/g. The molecule also registered a concentration at 10 min in the data set “in vivo” (Blood plasma HMB concentration) of 0 ng/g. This molecule showed a concentration at 20 min in “in vivo” (Blood plasma HMB concentration) of 0 ng/g. Also, the concentration at 30 min in the data set “in vivo” (Blood plasma HMB concentration) is 0 ng/g. Moreover, in the data set “in vivo” (Blood plasma HMB concentration), the concentration at 40 min amounted to 0 ng/g. The molecule further returned a concentration at 50 min in the data set “in vivo” (Blood plasma HMB concentration) of 0 ng/g. The same molecule registered a concentration at 60 min in “in vivo” (Blood plasma HMB concentration) of 0 ng/g. The concentration at 75 min in “in vivo” (Blood plasma HMB concentration) is 0 ng/g. Besides, in the data set “in vivo” (Blood plasma HMB concentration), the concentration at 90 min is 0 ng/g. In data set [4], the Bioavailability was 3%.
In data set [1], `CSCCC(O)C(=O)OC1CCCCC1` (centres unmarked) [cyclohexyl ester of HMB] came in with a Bioavailability of 20%.
In the case of `CSCC[C@H](N)C(=O)O` [methionine], the “amount remaining after incubation” value in data set [3] was 34%.
For the molecule `CCCCOC(=O)C(O)CCSC` (centres unmarked) [n-butyl ester of HMB], the Bioavailability in data set [1] is 17%.
In data set [1], `CCC(C)OC(=O)C(O)CCSC` (centres unmarked) [Sec butyl ester of HMB] returned a Bioavailability of 31%.
